Assay results: the supplement of paper PMC4862054

How the values were obtained:
Experiment in all cases: normalised response (% of control), CellTox Green; higher = less cell death (100 = DMSO, 0 = benzethonium chloride kill control)
Details in all cases: incubation time: 72 h
Hs578T = system: Hs578T
Summary of the method: (§1)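 After 72 h with compound in 384-well plates, breast cancer cell lines seeded as 20 µl suspension were read for CellTox Green fluorescence at 485/520 nm. CellTiter-Glo luminescence was then read after 10 min at room temperature. Compound was present at 5 concentrations in 10-fold steps over a 10,000-fold range set per compound, and plates were normalised to 0.1 % DMSO (100) and a positive kill control (0). Values are normalised signals, each at a single concentration.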

MDA-MB-231 = system: MDA-MB-231
Summary of the method: as §1

MDA-MB-436 = system: MDA-MB-436
Summary of the method: as §1

BT-474 = system: BT-474
Summary of the method: as §1

MDA-MB-453 = system: MDA-MB-453
Summary of the method: as §1

CAL-51 = system: CAL-51
Summary of the method: as §1

MFM-223 = system: MFM-223
Summary of the method: as §1

CAL-120 = system: CAL-120
Summary of the method: as §1

BT-549 = system: BT-549
Summary of the method: as §1

HCC1937 = system: HCC1937
Summary of the method: as §1

Row | SMILES | normalised response (Hs578T) | normalised response (MDA-MB-231) | normalised response (MDA-MB-436) | normalised response (BT-474) | normalised response (MDA-MB-453) | normalised response (CAL-51) | normalised response (MFM-223) | normalised response (CAL-120) | normalised response (BT-549) | normalised response (HCC1937)
1 | COc1ccc(S(=O)(=O)Nc2cccnc2Nc2ccc(O)cc2)cc1 [ABT-751] (1000 nM) | 78.8% | 53.4% | 57.2% | 86.1% | 102% | 110% | 83.6% | 87.2% | 40.4% | -57.9%
2 | COc1ccc(S(=O)(=O)Nc2cccnc2Nc2ccc(O)cc2)cc1 [ABT-751] (10000 nM) | 29.5% | 46.2% | 63.9% | 67.4% | 97% | 32.5% | 35.7% | 92% | 77.8% | 108%
3 | Cc1cc(Nc2nc(N[C@@H](C)c3ncc(F)cn3)ncc2Cl)[nH]n1 [AZD1480] (100 nM) | 96.6% | 98.9% | 101% | 71.6% | 106% | 107% | 100% | 98.6% | 95.4% | 100%
4 | Cc1cc(Nc2nc(N[C@@H](C)c3ncc(F)cn3)ncc2Cl)[nH]n1 [AZD1480] (1000 nM) | 71.7% | 76.7% | 105% | 95.3% | 105% | 69.4% | 41.5% | 87.1% | 88.9% | 69.3%
5 | CNC(=O)c1ccccc1Sc1ccc2c(/C=C/c3ccccn3)n[nH]c2c1 [Axitinib] (1000 nM) | 115% | 121% | 84.9% | 103% | 108% | 76% | 66.7% | 96.4% | 146% | 122%
6 | CNC(=O)c1ccccc1Sc1ccc2c(/C=C/c3ccccn3)n[nH]c2c1 [Axitinib] (10000 nM) | 119% | 96.8% | 89% | 99.4% | 111% | 40.2% | 97.7% | 92.5% | 90.9% | 91.2%
7 | CC(O)(CS(=O)(=O)c1ccc(F)cc1)C(=O)Nc1ccc(C#N)c(C(F)(F)F)c1 (centres undefined) [Bicalutamide] (1000 nM) |  | 115% | 95.5% | 104% | 103% | 112% | 97.5% | 97.6% | 116% | 59.6%
8 | CC(O)(CS(=O)(=O)c1ccc(F)cc1)C(=O)Nc1ccc(C#N)c(C(F)(F)F)c1 (centres undefined) [Bicalutamide] (10000 nM) | 86% | 125% | 78.1% | 103% | 99% | 92.2% | 100% | 103% | 116% | 112%
9 | CCNC(=O)CCC/C=C\C[C@@H]1[C@@H](/C=C/[C@@H](O)CCc2ccccc2)[C@H](O)C[C@@H]1O [Bimatoprost] (550 nM) | 97.8% | 88.8% | 67.2% | 98.5% | 99.3% | 106% | 103% | 97.7% | 73.3% | 129%
10 | CCNC(=O)CCC/C=C\C[C@@H]1[C@@H](/C=C/[C@@H](O)CCc2ccccc2)[C@H](O)C[C@@H]1O [Bimatoprost] (5500 nM) | 61.1% | 110% | 77% | 57% | 98% | 112% | 97.4% | 98.4% | 121% | 104%
11 | COc1cc(Nc2c(C#N)cnc3cc(OCCCN4CCN(C)CC4)c(OC)cc23)c(Cl)cc1Cl [Bosutinib] (1000 nM) | 78% | 93.6% | 107% | 94.2% | 114% | 84.4% |  | 104% | 106% | 110%
12 | COc1cc(Nc2c(C#N)cnc3cc(OCCCN4CCN(C)CC4)c(OC)cc23)c(Cl)cc1Cl [Bosutinib] (10000 nM) | 72.5% | -62.9% | 25.9% | 19.3% | 34.6% | 38.5% | 81.3% | 65.6% | 33.1% | 32.9%
13 | Cn1cc(C2=C(c3cn(C4CCN(Cc5ccccn5)CC4)c4ccccc34)C(=O)NC2=O)c2ccccc21 [Enzastaurin] (1000 nM) | 97.7% | 76.6% | 89.4% | 105% | 107% | 104% | 82% | 103% | 143% | 
14 | Cn1cc(C2=C(c3cn(C4CCN(Cc5ccccn5)CC4)c4ccccc34)C(=O)NC2=O)c2ccccc21 [Enzastaurin] (10000 nM) |  | 113% | 94.4% | 95.5% | 108% | 95.7% | 100% | 79.2% | 94.8% | 121%
15 | CC(C)(C)NC(=O)[C@H]1CC[C@H]2[C@@H]3CC[C@H]4NC(=O)C=C[C@]4(C)[C@H]3CC[C@]12C [Finasteride] (1000 nM) | 107% | 107% | 102% | 99.4% | 105% | 107% | 93.2% | 99.4% | 109% | 116%
16 | CC(C)(C)NC(=O)[C@H]1CC[C@H]2[C@@H]3CC[C@H]4NC(=O)C=C[C@]4(C)[C@H]3CC[C@]12C [Finasteride] (10000 nM) |  | 113% | 101% | 100% | 85.4% | 100% |  | 106% | 98.9% | 77.4%

Row | SMILES | normalised response (Hs578T) | normalised response (MDA-MB-231) | normalised response (MDA-MB-436) | normalised response (BT-474) | normalised response (MDA-MB-453) | normalised response (CAL-51) | normalised response (MFM-223) | normalised response (CAL-120) | normalised response (BT-549) | normalised response (HCC1937)
17 | Nc1ccn([C@@H]2O[C@H](CO)[C@@H](O)C2(F)F)c(=O)n1 [Gemcitabine] (100 nM) | 103% | 101% | 58.6% | 98.1% | 110% | 32.1% | 101% | 100% | 95% | 89%
18 | Nc1ccn([C@@H]2O[C@H](CO)[C@@H](O)C2(F)F)c(=O)n1 [Gemcitabine] (1000 nM) | 123% | 75.5% | 89.8% | 104% | 97.7% | 55.1% | 104% | 96.3% | 88.8% | 108%
19 | CC(C)C[C@H](NC(=O)[C@@H](COC(C)(C)C)NC(=O)[C@H](Cc1ccc(O)cc1)NC(=O)[C@H](CO)NC(=O)[C@H](Cc1c[nH]c2ccccc12)NC(=O)[C@H](Cc1cnc[nH]1)NC(=O)[C@@H]1CCC(=O)N1)C(=O)N[C@@H](CCCNC(=N)N)C(=O)N1CCC[C@H]1C(=O)NNC(N)=O [Goserelin] (1000 nM) | 102% |  | 92.4% | 99.8% | 107% | 105% | 83.2% | 102% | 124% | 83.8%
20 | CC(C)C[C@H](NC(=O)[C@@H](COC(C)(C)C)NC(=O)[C@H](Cc1ccc(O)cc1)NC(=O)[C@H](CO)NC(=O)[C@H](Cc1c[nH]c2ccccc12)NC(=O)[C@H](Cc1cnc[nH]1)NC(=O)[C@@H]1CCC(=O)N1)C(=O)N[C@@H](CCCNC(=N)N)C(=O)N1CCC[C@H]1C(=O)NNC(N)=O [Goserelin] (10000 nM) |  | 94.9% | 90.3% | 84.2% | 95% | 104% |  | 98% | 107% | 88%
21 | CC(=O)[C@]1(O)Cc2c(O)c3c(c(O)c2[C@@H](O[C@H]2C[C@H](N)[C@H](O)[C@H](C)O2)C1)C(=O)c1ccccc1C3=O [Idarubicin] (100 nM) | 103% | 114% | 40.4% | 72.2% | 108% | 70.2% | 99.2% | 98.8% | 98.7% | 110%
22 | CC(=O)[C@]1(O)Cc2c(O)c3c(c(O)c2[C@@H](O[C@H]2C[C@H](N)[C@H](O)[C@H](C)O2)C1)C(=O)c1ccccc1C3=O [Idarubicin] (1000 nM) | 84% | 77.7% | 83.7% | 65.2% | 106% | -13.1% | 37.8% | 55.6% | 84.2% | 113%
23 | C/C(=C\c1csc(C)n1)[C@@H]1C[C@@H]2O[C@]2(C)CCC[C@H](C)[C@H](O)[C@@H](C)C(=O)C(C)(C)[C@@H](O)CC(=O)N1 [Ixabepilone] (100 nM) | 95.5% | 102% | 106% | 100% | 107% | 35.9% | 98.8% | 105% | 65.6% | 
24 | C/C(=C\c1csc(C)n1)[C@@H]1C[C@@H]2O[C@]2(C)CCC[C@H](C)[C@H](O)[C@@H](C)C(=O)C(C)(C)[C@@H](O)CC(=O)N1 [Ixabepilone] (1000 nM) | 115% | 55% | 103% | 58.1% | 101% | 33.8% | 105% | 99.3% | 62.7% | 92.4%
25 | C=CCn1c(=O)c2cnc(Nc3ccc(N4CCN(C)CC4)cc3)nc2n1-c1cccc(C(C)(C)O)n1 [MK1775] (1000 nM) | 71.9% | -98.4% | 29.9% | 68.6% | 93.3% | 17.8% | 68.5% | 79.1% | 74.9% | 103%
26 | C=CCn1c(=O)c2cnc(Nc3ccc(N4CCN(C)CC4)cc3)nc2n1-c1cccc(C(C)(C)O)n1 [MK1775] (10000 nM) | 33.3% | -15.5% | 67.1% | 44.8% | 89.7% | 41.9% | 67.2% | 53.2% | 14.7% | 65.6%
27 | CO[C@@H]1[C@H](N(C)C(=O)c2ccccc2)C[C@H]2O[C@]1(C)n1c3ccccc3c3c4c(c5c6ccccc6n2c5c31)C(=O)NC4 [Midostaurin] (1000 nM) | 64.2% | 61.2% | 77.3% | 83.7% | 107% | -37.7% | 78.8% | 91.7% | 54% | 52.8%
28 | CO[C@@H]1[C@H](N(C)C(=O)c2ccccc2)C[C@H]2O[C@]1(C)n1c3ccccc3c3c4c(c5c6ccccc6n2c5c31)C(=O)NC4 [Midostaurin] (10000 nM) | 21.1% | 60.6% | 83.6% | 87.9% | 91.6% | -24.3% | 93.1% | 80.8% | 25.2% | 91.9%
29 | CO[C@@]12[C@H](COC(N)=O)C3=C(C(=O)C(C)=C(N)C3=O)N1C[C@@H]1N[C@@H]12 [Mitomycin C] (1000 nM) | 90.8% | 97.1% | 78.8% | 94.9% | 100% | 35.3% | 101% | 100% | 123% | 111%
30 | CO[C@@]12[C@H](COC(N)=O)C3=C(C(=O)C(C)=C(N)C3=O)N1C[C@@H]1N[C@@H]12 [Mitomycin C] (10000 nM) | 77.6% | 101% | 90.2% | 101% | 104% | -36.9% |  | 98.4% | 99.5% | 108%
31 | CCNC(=O)c1noc(-c2cc(C(C)C)c(O)cc2O)c1-c1ccc(CN2CCOCC2)cc1 [NVP-AUY922] (100 nM) | 102% | 46.7% | 67.1% | 80% | 96.2% | 64.1% | 78.3% | 90.3% | 140% | 125%
32 | CCNC(=O)c1noc(-c2cc(C(C)C)c(O)cc2O)c1-c1ccc(CN2CCOCC2)cc1 [NVP-AUY922] (1000 nM) | -31.9% | 52.9% | 107% | 55.9% | 89% | 48.1% | 98.3% | 88.4% | 117% | 48.9%
